# Literature values as cited in patent publication US20250122197A1, “PROCESS FOR […] ISOLATING ATROPISOMERS OF 7-CHLORO-6-FLUORO-1-(2-ISOPROPYL-4-METHYLPYRIDIN-3-YL)PYRIDO[2,3-D]PYRIMIDINE-2,4(1H,3H)-DIONE” (AMGEN INC., priority 2020, published 2025).
# How the values were obtained:
# [1] = system: phosphorylation of extracellular signal-regulated kinase (ERK); settings: preclinical studies, Canon et al. Nature 2019
# [2] = system: KRAS p.G12C tumors; settings: mice bearing KRAS p.G12C tumors, Canon et al. Nature 2019
structure (smiles),measurement,setting,value
C=CC(=O)N1CCN(c2nc(=O)n(-c3c(C)ccnc3C(C)C)c3nc(-c4c(O)cccc4F)c(F)cc23)[C@@H](C)C1 [AMG 510],Inhibition of ERK phosphorylation,[1],inhibited nearly all detectable phosphorylation
same,Tumor regression,[2],durable complete tumor regression
